Assays:
Assay type in all cases: functional, cell-based
[1] = target: T1, OCTN1 (Solute carrier family 22 member 4, SLC22A4) (Rattus norvegicus, UniProt Q9R141); test: TP_TRANSPORTER: inhibition of TEA uptake by 1-methyl-4-phenylpyridinium at 5mM in Octn1-HRPE cells; design: scale not given: the % may be the effect or the level left; conditions: human, HRPE cells that express Octn1, probe TEA (tetraethylammonium); read-out: Activity
T1 sequence (Q9R141 whole entry): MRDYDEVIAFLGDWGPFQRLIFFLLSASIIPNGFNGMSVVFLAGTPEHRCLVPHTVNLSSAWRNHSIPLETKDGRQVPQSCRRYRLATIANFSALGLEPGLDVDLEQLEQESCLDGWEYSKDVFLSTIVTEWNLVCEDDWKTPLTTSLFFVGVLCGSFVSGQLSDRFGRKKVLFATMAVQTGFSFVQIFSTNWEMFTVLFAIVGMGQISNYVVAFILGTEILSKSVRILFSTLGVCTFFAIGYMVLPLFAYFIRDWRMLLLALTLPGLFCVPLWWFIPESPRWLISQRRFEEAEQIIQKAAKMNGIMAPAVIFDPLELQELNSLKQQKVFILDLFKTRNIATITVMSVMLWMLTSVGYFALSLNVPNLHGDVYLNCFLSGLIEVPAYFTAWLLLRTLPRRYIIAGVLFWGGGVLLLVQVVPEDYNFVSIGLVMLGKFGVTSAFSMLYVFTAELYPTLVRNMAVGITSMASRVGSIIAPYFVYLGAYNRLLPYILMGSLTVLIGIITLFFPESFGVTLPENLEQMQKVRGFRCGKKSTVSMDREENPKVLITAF

[2] = target: T2, Solute carrier family 22 member 4 (Rattus norvegicus, UniProt Q9R141); test: TP_TRANSPORTER: inhibition of TEA uptake in Octn1-HRPE cells
T2 sequence (Q9R141 whole entry): T1 sequence (Q9R141 whole entry)

[3] = target: T2, Solute carrier family 22 member 4; test: TP_TRANSPORTER: inhibition of TEA uptake by Amiloride at 1mM in Octn1-HRPE cells; design: scale not given: the % may be the effect or the level left; conditions: human, 1000 µM
[4] = target: T1, OCTN1 (Solute carrier family 22 member 4, SLC22A4); test: TP_TRANSPORTER: inhibition of TEA uptake by Imipramine at 1mM in Octn1-HRPE cells; design: scale not given: the % may be the effect or the level left; conditions: human, HRPE cells that express Octn1, probe TEA (tetraethylammonium); read-out: Activity
[5] = target: T1, OCTN1 (Solute carrier family 22 member 4, SLC22A4); test: TP_TRANSPORTER: inhibition of TEA uptake by Verapamil at 5mM in Octn1-HRPE cells; design: scale not given: the % may be the effect or the level left; conditions: human, HRPE cells that express Octn1, probe TEA (tetraethylammonium); read-out: Activity

Row | Structure (SMILES) | IC50 [2] | further results
1 | C[n+]1ccc(-c2ccccc2)cc1 |  | activity at 5000 µM [1]: 62%
2 | CN(C)c1nc(N)c(C(=O)NC(=N)N)nc1Cl | 200 µM | 
3 | N=C(N)NC(=O)c1nc(Cl)c(N)nc1N [AMILORIDE] |  | Activity [3]: 79%
4 | CN/C(=N/CCSCc1nc[nH]c1C)NC#N [CIMETIDINE] | 1500 µM | 
5 | CNCCCN1c2ccccc2CCc2ccccc21 [DESIPRAMINE] | 80 µM | 
6 | CN(C)CCCN1c2ccccc2CCc2ccccc21 [IMIPRAMINE] |  | activity at 1000 µM [4]: 31%
7 | CCN(CC)CCNC(=O)c1ccc(N)cc1 [PROCAINAMIDE] | 1000 µM | 
8 | CC[N+](CC)(CC)CC [TETRYLAMMONIUM] | 1000 µM | 
9 | COc1ccc(CCN(C)CCCC(C#N)(c2ccc(OC)c(OC)c2)C(C)C)cc1OC (centres undefined) [VERAPAMIL] |  | activity at 5000 µM [5]: 20%

From ChEMBL document CHEMBL2074149, “Structural and functional characteristics and tissue distribution pattern of rat OCTN1, an organic cation transporter, cloned from placenta” (Biochim Biophys Acta, 2000)
